# Source: US20190185518A9, “WARHEAD-CONTAINING PEPTIDOMIMETIC MACROCYCLES AS MODULATORS OF BFL-1” (AILERON Therapeutics, Inc., priority 2017, published 2019)
# Positions of bridges follow the written chain, without caps; N, C: chain ends. Non-standard residues stand in square brackets, D forms with d. Residues, ends and D or L forms follow the SMILES beside them. Gly(1-adamantyl) = N[C@H](C(=O)O)C12CC3CC(CC(C3)C1)C2; hPhe = N[C@@H](CCc1ccccc1)C(=O)O; R8 = C=CCCCCCC[C@@](C)(N)C(=O)O; Cit = NC(=O)NCCC[C@H](N)C(=O)O; αMeL = CC(C)C[C@](C)(N)C(=O)O; S5 = C=CCCC[C@](C)(N)C(=O)O
# Experiments:
# Bcl-xL = Bcl-xL (Homo sapiens, UniProt Q07817); assay: Ki determination for Bcl-xL (BCL-2 family binding spectrum); details: read-out: Ki BCL-XL
# Sequence of Bcl-xL (Q07817 whole entry, species assumed): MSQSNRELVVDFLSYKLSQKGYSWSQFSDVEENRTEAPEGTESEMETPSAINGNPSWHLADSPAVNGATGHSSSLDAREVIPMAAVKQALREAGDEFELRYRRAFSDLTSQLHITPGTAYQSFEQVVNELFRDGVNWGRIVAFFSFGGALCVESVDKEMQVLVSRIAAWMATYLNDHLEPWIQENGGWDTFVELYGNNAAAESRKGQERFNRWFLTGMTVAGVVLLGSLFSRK
# From the text: (§1) To assess the binding and affinity of compounds that antagonize the interaction between a peptide and an acceptor protein, a fluorescence polarization assay (FPA) utilizing a fluoresceinated peptidomimetic macrocycle derived from a peptidomimetic precursor sequence is used, for example. The FPA technique measures the molecular orientation and mobility using polarized light and fluorescent tracer. […] A compound that antagonizes the interaction between the fluoresceinated peptidomimetic macrocycle and an acceptor protein will be detected in a competitive binding FPA experiment.
# (§2) For example, putative antagonist compounds (1 nM to 1 mM) and a fluoresceinated peptidomimetic macrocycle (25 nM) are incubated with the acceptor protein (50 nM) in binding buffer (140 mM NaCl, 50 mM Tris-HCL, pH 7.4) for 30 minutes at room temperature. Antagonist binding activity is measured, for example, by fluorescence polarization on a luminescence spectrophotometer (e.g. Perkin-Elmer LS50B). Kd values may be determined by nonlinear regression analysis using, for example, Graphpad Prism software (GraphPad Software, Inc., San Diego, Calif.).
# Bcl-2 = Bcl-2 (Homo sapiens, UniProt P10415); assay: Ki determination for Bcl-2 (BCL-2 family binding spectrum); details: read-out: Ki BCL-2
# Sequence of Bcl-2 (P10415 whole entry, species assumed): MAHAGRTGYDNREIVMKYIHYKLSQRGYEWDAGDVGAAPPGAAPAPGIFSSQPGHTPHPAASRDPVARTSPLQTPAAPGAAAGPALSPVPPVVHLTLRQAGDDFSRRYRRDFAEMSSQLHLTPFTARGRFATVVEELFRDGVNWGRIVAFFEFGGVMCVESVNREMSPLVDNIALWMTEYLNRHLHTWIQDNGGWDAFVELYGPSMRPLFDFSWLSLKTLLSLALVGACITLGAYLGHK
# From the text: as §1, §2
# Mcl-1 = Mcl-1 (Homo sapiens, UniProt Q07820); assay: Ki determination for Mcl-1 (BCL-2 family binding spectrum); details: read-out: Ki MCL-1
# Sequence of Mcl-1 (Q07820 whole entry, species assumed): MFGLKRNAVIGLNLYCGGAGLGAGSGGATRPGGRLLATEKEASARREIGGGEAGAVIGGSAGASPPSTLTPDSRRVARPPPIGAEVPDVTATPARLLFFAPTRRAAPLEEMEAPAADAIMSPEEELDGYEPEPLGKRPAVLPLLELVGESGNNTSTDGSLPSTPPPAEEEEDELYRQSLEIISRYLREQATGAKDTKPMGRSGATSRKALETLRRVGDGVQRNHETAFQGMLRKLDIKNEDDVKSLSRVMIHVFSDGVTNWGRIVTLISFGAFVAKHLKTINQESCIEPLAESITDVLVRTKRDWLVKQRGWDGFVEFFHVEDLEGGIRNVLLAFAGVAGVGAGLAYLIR
# Outline: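 Binding to Mcl-1 was measured as displacement of a fluorescein-labelled macrocyclic peptidomimetic, read by fluorescence polarization. Constants were fitted by nonlinear regression.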
SMILES,Ki (Bcl-xL) [nM],Ki (Bcl-2) [nM],Ki (Mcl-1) [nM]
CC[C@H](C)[C@H](NC(C)=O)C(=O)N[C@@H](C)C(=O)N[C@@H](CCC(N)=O)C(=O)N[C@@H](C)C(=O)N[C@@H](CC(C)C)C(=O)N[C@@H](CCCNC(=N)N)C(=O)N[C@]1(C)CCCCCCC=CCCC[C@@](C)(C(=O)N[C@@H](Cc2ccc(O)cc2)C(=O)N[C@@H](C)C(=O)N[C@@H](C)C(N)=O)NC(=O)[C@H](CC(N)=O)NC(=O)[C@H](Cc2ccccc2)NC(=O)[C@H](C)NC(=O)[C@H](CC(=O)O)NC(=O)CNC(=O)[C@H]([C@@H](C)CC)NC1=O [compound 1632] (Ac-IAQALR[R8]IGDAFN[S5]YAA-NH2; staple 7-14),> 1000,> 1000,
CC[C@H](C)[C@H](NC(C)=O)C(=O)N[C@@H](C)C(=O)N[C@@H](CCC(N)=O)C(=O)N[C@@H](C)C(=O)N[C@@H](CC(C)C)C(=O)N[C@@H](C)C(=O)N[C@]1(C)CCCCCCC=CCCC[C@@](C)(C(=O)N[C@@H](Cc2ccc(O)cc2)C(=O)N[C@@H](Cc2ccc(O)cc2)C(=O)N[C@@H](C)C(N)=O)NC(=O)[C@H](CC(N)=O)NC(=O)[C@H](Cc2ccccc2)NC(=O)[C@H](C)NC(=O)[C@H](CC(=O)O)NC(=O)CNC(=O)[C@H]([C@@H](C)CC)NC1=O [compound 1637] (Ac-IAQALA[R8]IGDAFN[S5]YYA-NH2; staple 7-14),> 1000,> 1000,
CC[C@H](C)[C@H](NC(C)=O)C(=O)N[C@@H](C)C(=O)N[C@@H](CCC(N)=O)C(=O)N[C@@H](C)C(=O)N[C@@H](CC(C)C)C(=O)N[C@@H](CCCNC(=N)N)C(=O)N[C@]1(C)CCCCCCC=CCCC[C@@](C)(C(=O)N[C@@H](Cc2ccc(O)cc2)C(=O)N[C@@H](Cc2ccc(O)cc2)C(=O)N[C@@H](C)C(N)=O)NC(=O)[C@H](CC(N)=O)NC(=O)[C@H](C)NC(=O)[C@H](C)NC(=O)[C@H](CC(=O)O)NC(=O)CNC(=O)[C@H]([C@@H](C)CC)NC1=O [compound 1639] (Ac-IAQALR[R8]IGDAAN[S5]YYA-NH2; staple 7-14),> 1000,> 1000,
CC[C@H](C)[C@H](NC(C)=O)C(=O)N[C@@H](Cc1c[nH]c2ccccc12)C(=O)N[C@H](C(=O)N[C@@H](C)C(=O)N[C@@H](CCC(N)=O)C(=O)N[C@@H](C)C(=O)N[C@@H](CC(C)C)C(=O)N[C@@H](CCCNC(=N)N)C(=O)N[C@]1(C)CCCCCCC=CCCC[C@@](C)(C(=O)N[C@@H](Cc2ccc(O)cc2)C(=O)N[C@@H](Cc2ccc(O)cc2)C(=O)N[C@@H](C)C(N)=O)NC(=O)[C@H](CC(N)=O)NC(=O)[C@H](Cc2ccccc2)NC(=O)[C@H](CCC(N)=O)NC(=O)[C@H](CC(=O)O)NC(=O)CNC(=O)[C@H]([C@@H](C)CC)NC1=O)[C@@H](C)CC [compound 1650] (Ac-IWIAQALR[R8]IGDQFN[S5]YYA-NH2; staple 9-16),12,67,5.2
CC[C@H](C)[C@H](NC(C)=O)C(=O)N[C@@H](Cc1c[nH]c2ccccc12)C(=O)N[C@H](C(=O)N[C@@H](C)C(=O)N[C@@H](CCC(N)=O)C(=O)N[C@@H](C)C(=O)N[C@H](C(=O)N[C@@H](CCCNC(=N)N)C(=O)N[C@]1(C)CCCCCC/C=C\CCC[C@@](C)(C(=O)N[C@@H](Cc2ccc(O)cc2)C(=O)N[C@@H](Cc2ccc(O)cc2)C(=O)N[C@@H](C)C(N)=O)NC(=O)[C@H](CC(N)=O)NC(=O)[C@H](Cc2ccccc2)NC(=O)[C@H](C)NC(=O)[C@H](CC(=O)O)NC(=O)CNC(=O)[C@H]([C@@H](C)CC)NC1=O)C12CC3CC(CC(C3)C1)C2)[C@@H](C)CC [compound 1689] (Ac-IWIAQA[Gly(1-adamantyl)]R[R8]IGDAFN[S5]YYA-NH2; staple (Z) 9-16),110,> 1000,
CC[C@H](C)[C@H](NC(C)=O)C(=O)N[C@@H](Cc1c[nH]c2ccccc12)C(=O)N[C@H](C(=O)N[C@@H](Cc1ccccc1)C(=O)N[C@@H](C)C(=O)N[C@@H](C)C(=O)N[C@@H](CC(C)C)C(=O)N[C@@H](CCCNC(=N)N)C(=O)N[C@]1(C)CCCCCCC=CCCC[C@@](C)(C(=O)N[C@@H](Cc2ccc(O)cc2)C(=O)N[C@@H](Cc2ccc(O)cc2)C(=O)N[C@@H](C)C(N)=O)NC(=O)[C@H](CC(N)=O)NC(=O)[C@H](Cc2ccccc2)NC(=O)[C@H](C)NC(=O)[C@H](CC(=O)O)NC(=O)CNC(=O)[C@H]([C@@H](C)CC)NC1=O)[C@@H](C)CC [compound 1735] (Ac-IWIFAALR[R8]IGDAFN[S5]YYA-NH2; staple 9-16),110,125,

# The next lines start with the values.
Ki (Bcl-xL) [nM],Ki (Bcl-2) [nM],Ki (Mcl-1) [nM],SMILES
,30.7,1.8,CC[C@H](C)[C@H](NC(C)=O)C(=O)N[C@@H](Cc1c[nH]c2ccccc12)C(=O)N[C@H](C(=O)N[C@@H](C)C(=O)N[C@@H](C)C(=O)N[C@@H](C)C(=O)N[C@@H](CC(C)C)C(=O)N[C@@H](CCCNC(=N)N)C(=O)N[C@]1(C)CCCCCCC=CCCC[C@@](C)(C(=O)N[C@@H](Cc2ccc(O)cc2)C(=O)N[C@@H](Cc2ccc(O)cc2)C(=O)N[C@@H](C)C(N)=O)NC(=O)[C@H](CCC(=O)O)NC(=O)[C@H](Cc2ccccc2)NC(=O)[C@H](C)NC(=O)[C@H](CC(=O)O)NC(=O)CNC(=O)[C@H]([C@@H](C)CC)NC1=O)[C@@H](C)CC [compound 1749] (Ac-IWIAAALR[R8]IGDAFE[S5]YYA-NH2; staple 9-16)
,30.7,8,CC[C@H](C)[C@H](NC(C)=O)C(=O)N[C@@H](Cc1c[nH]c2ccccc12)C(=O)N[C@H](C(=O)N[C@@H](C)C(=O)N[C@@H](CCC(N)=O)C(=O)N[C@@H](C)C(=O)N[C@@H](CC(C)C)C(=O)N[C@@H](CCCNC(=N)N)C(=O)N[C@]1(C)CCCCCCC=CCCC[C@@](C)(C(=O)N[C@@H](Cc2ccc(O)cc2)C(=O)N[C@@H](CCc2ccccc2)C(=O)N[C@@H](C)C(N)=O)NC(=O)[C@H](CC(N)=O)NC(=O)[C@H](Cc2ccccc2)NC(=O)[C@H](C)NC(=O)[C@H](CC(=O)O)NC(=O)CNC(=O)[C@H]([C@@H](C)CC)NC1=O)[C@@H](C)CC [compound 1757] (Ac-IWIAQALR[R8]IGDAFN[S5]Y[hPhe]A-NH2; staple 9-16)
> 1000,> 1000,,CC[C@H](C)[C@H](NC(C)=O)C(=O)N[C@@H](Cc1c[nH]c2ccccc12)C(=O)N[C@H](C(=O)N[C@@H](C)C(=O)N[C@@H](CCC(N)=O)C(=O)N[C@@H](C)C(=O)N[C@@](C)(CC(C)C)C(=O)N[C@@H](CCCNC(=N)N)C(=O)N[C@]1(C)CCCCCCC=CCCC[C@@](C)(C(=O)N[C@@H](Cc2ccc(O)cc2)C(=O)N[C@@H](Cc2ccc(O)cc2)C(=O)N[C@@H](C)C(N)=O)NC(=O)[C@H](CC(N)=O)NC(=O)[C@H](Cc2ccccc2)NC(=O)[C@H](C)NC(=O)[C@H](CC(=O)O)NC(=O)CNC(=O)[C@H]([C@@H](C)CC)NC1=O)[C@@H](C)CC [compound 1767] (Ac-IWIAQA[αMeL]R[R8]IGDAFN[S5]YYA-NH2; staple 9-16)
,> 1000,> 1000,CC[C@H](C)[C@H](NC(C)=O)C(=O)N[C@@H](Cc1c[nH]c2ccccc12)C(=O)N[C@H](C(=O)N[C@@H](C)C(=O)N[C@@H](CCC(N)=O)C(=O)N[C@@H](C)C(=O)N[C@@H](C)C(=O)N[C@@H](CCCNC(N)=O)C(=O)N[C@]1(C)CCCCCCC=CCCC[C@@](C)(C(=O)N[C@@H](Cc2ccc(O)cc2)C(=O)N[C@@H](Cc2ccc(O)cc2)C(=O)N[C@@H](C)C(N)=O)NC(=O)[C@H](CC(N)=O)NC(=O)[C@H](Cc2ccccc2)NC(=O)[C@H](C)NC(=O)[C@H](CC(=O)O)NC(=O)CNC(=O)[C@H]([C@@H](C)CC)NC1=O)[C@@H](C)CC [compound 1771] (Ac-IWIAQAA[Cit][R8]IGDAFN[S5]YYA-NH2; staple 9-16)
> 1000,> 1000,,CC[C@H](C)[C@H](NC(C)=O)C(=O)N[C@@H](Cc1c[nH]c2ccccc12)C(=O)N[C@H](C(=O)N[C@@H](C)C(=O)N[C@@H](CCC(N)=O)C(=O)N[C@@H](C)C(=O)N[C@@H](CC(C)C)C(=O)N[C@@H](CCCNC(N)=O)C(=O)N[C@]1(C)CCCCCCC=CCCC[C@@](C)(C(=O)N[C@@H](Cc2ccc(O)cc2)C(=O)N[C@@H](Cc2ccc(O)cc2)C(=O)N[C@@H](C)C(N)=O)NC(=O)[C@H](CC(N)=O)NC(=O)[C@H](C)NC(=O)[C@H](C)NC(=O)[C@H](CC(=O)O)NC(=O)CNC(=O)[C@H]([C@@H](C)CC)NC1=O)[C@@H](C)CC [compound 1773] (Ac-IWIAQAL[Cit][R8]IGDAAN[S5]YYA-NH2; staple 9-16)
> 1000,> 1000,,CC[C@H](C)[C@H](NC(C)=O)C(=O)N[C@@H](Cc1c[nH]c2ccccc12)C(=O)N[C@H](C(=O)N[C@@H](C)C(=O)N[C@@H](CCC(N)=O)C(=O)N[C@@H](C)C(=O)N[C@@H](CC(C)C)C(=O)N[C@@H](CCCNC(N)=O)C(=O)N[C@]1(C)CCCCCCC=CCCC[C@@](C)(C(=O)N[C@@H](Cc2ccc(O)cc2)C(=O)N[C@@H](Cc2ccc(O)cc2)C(=O)N[C@@H](C)C(N)=O)NC(=O)[C@H](CC(N)=O)NC(=O)[C@H](C(C)C)NC(=O)[C@H](C)NC(=O)[C@H](CC(=O)O)NC(=O)CNC(=O)[C@H]([C@@H](C)CC)NC1=O)[C@@H](C)CC [compound 1774] (Ac-IWIAQAL[Cit][R8]IGDAVN[S5]YYA-NH2; staple 9-16)
